Assay results published in patent publication US20220280594A1, “APPLICATION OF POLYPEPTIDE OR DERIVATIVE THEREOF” (CHENGDU HUITAI BIOMEDICINE CO., LTD., priority 2019, published 2022).

Tests used:
Assay type in all cases: cell-based
[1] = system: human liver adenocarcinoma cells (SK-HEP-1); assay: transwell migration assay, SK-HEP-1 cells; details: SK-HEP-1 transwell migration, 10 μM, 24 hours; control group 1 782 ± 108, control group 2 768 ± 86
Experimental: (§1) The Transwell chamber system was used in the transwell cell migration experiment. The chamber has an upper layer and a lower layer, which are separated by an artificial semipermeable membrane in the middle. Cells that have migrated through the semi-permeable membrane will attach to the lower surface of the semi-permeable membrane. The migration ability is evaluated by counting the number of cells on the lower surface of the semi-permeable membrane. The number of cells that have migrated is negatively correlated with the inhibitory effect of the drug on the migration ability of the tumor cells. Transwell migration assay was performed as follows: tumor cells were cultured in vitro, cells in logarithmic growth phase were collected, and cell suspension was prepared with fresh serum-free medium at a density of 2-3×10^5 cells/mL. Cells were inoculated, 100 μL/well cell suspension (serum-free medium) in the upper chamber and 600 μL/well complete culture medium in the lower chamber. After incubated in 37° C., 5% CO2 incubator for 4-5 hours, serum-free medium (100 μL/well) was added to the control group, and serum-free medium containing polypeptide or derivative thereof (N1-N54) was added to the upper chamber of the treatment group (100 μL/well), the final concentration of the peptide or derivative thereof in the upper chamber was 10 μM. The cells were incubated continuously for 24 hours, and then fixed with methanol and stained with crystal violet. Images were taken under a microscope and the number of migrated cells was counted with ImageJ.
This example was a transwell cell migration experiment to evaluate the inhibitory effect of the polypeptide or derivative thereof (N1-N54) on the migration ability of human liver adenocarcinoma cells (SK-HEP-1). The experimental method was as described in Example 3.

[2] = system: human pharyngeal squamous-cell carcinoma cells (Fadu); assay: scratch assay, migration of Fadu cells; details: 10 μM, 48 hours, control group 28.76 ± 4.08
Experimental: (§2) In the scratch assay, the cell migration rate was negatively correlated with the inhibitory effect of the drug component on tumor cell migration ability. The cell migration inhibition experiment was described as follows: tumor cells were cultured in vitro, cells in logarithmic growth phase were collected and seeded evenly in a 24-well plate at a density of 1-2×10^5 cells/well; the cells were cultured in a cell incubator until a monolayer was formed; a scratch tool was used to make a “-” (straight) scratch on the monolayer of cells; the cells were washed 1-3 times with PBS, and a medium (with 2% fetal bovine serum) containing specific test components was added to the culture. Experimental grouping: PBS control group; polypeptide or derivative thereof treatment group (N1-N54), 10 μM. Three independent parallel wells were set up in each group, and the cells were cultured continuously in a cell incubator for 48 hours. […] At least 3 representative images for each well were taken. ImageJ software was used to count the migration distance of the cells, and the cell migration rate was calculated as: cell migration rate (%)=(width of original scratch−width of current scratch)/width of original scratch×100.
This example was a scratch assay to evaluate the inhibitory effect of the polypeptide or derivative thereof (N1-N54) on the migration ability of human pharyngeal squamous-cell carcinoma cells (Fadu). The experimental method was as described in Example 2.

[3] = system: human pancreatic cancer cells (PANC-1); assay: transwell migration assay, PANC-1 cells; details: PANC-1 transwell migration, 10 μM, 24 hours; control group 360 ± 60
Experimental: as §1
This example was a transwell cell migration experiment to evaluate the inhibitory effect of the polypeptide or derivative thereof (N1-N54) on the migration ability of human pancreatic cancer cells (PANC-1). The experimental method was as described in Example 3.

[4] = system: human breast cancer cells (MDA-MB-231); assay: scratch assay, migration of MDA-MB-231 cells; details: MDA-MB-231, 10 μM, 48 hours; control group 36.19 ± 5.15
Experimental: as §2
This example was a scratch assay to evaluate the inhibitory effect of the polypeptide or derivative thereof (N1-N54) on the migration ability of human breast cancer cells (MDA-MB-231). The experimental method was as described in Example 2.

[5] = system: human pancreatic cancer cells (PANC-1); assay: scratch assay, migration of PANC-1 cells; details: PANC-1, 10 μM, 48 hours; control group 66.65 ± 3.37
Experimental: as §2
This example was a scratch assay to evaluate the inhibitory effect of the polypeptide or derivative thereof (N1-N54) on the migration ability of human pancreatic cancer cells (PANC-1). The experimental method was as described in Example 2.

[6] = system: human lung squamous carcinoma cells (NCI-H226); assay: scratch assay, migration of NCI-H226 cells; details: NCI-H226, 10 μM, 48 hours; control group 65.31 ± 3.19
Experimental: as §2
This example was a scratch assay to evaluate the inhibitory effect of the polypeptide or derivative thereof (N1-N54) on the migration ability of human lung squamous carcinoma cells (NCI-H226). The experimental method was as described in Example 2.

[7] = system: human thyroid cancer cells (FRO); assay: scratch assay, migration of FRO cells; details: 10 μM, 48 hours, control group 60.34 ± 8.32
Experimental: as §2
This example was a scratch assay to evaluate the inhibitory effect of the polypeptide or derivative thereof (N1-N54) on the migration ability of human thyroid cancer cells (FRO). The experimental method was as described in Example 2.

[8] = system: human non-small cell lung cancer cells (A549); assay: scratch assay, migration of A549 cells; details: A549, 10 μM, 48 hours; control group 75.31 ± 8.19
Experimental: as §2
This example was a scratch assay to evaluate the inhibitory effect of the polypeptide or derivative thereof (N1-N54) on the migration ability of human non-small cell lung cancer (A549). The experimental method was as described in Example 2.

[9] = system: human lung cancer cells (95D); assay: scratch assay, migration of 95D cells; details: 10 μM, 48 hours, control group 55.3 ± 3.19
Experimental: as §2
This example was a scratch assay to evaluate the inhibitory effect of the polypeptide or derivative thereof (N1-N54) on the migration ability of human lung cancer cells (95D). The experimental method was as described in Example 2.

[10] = system: human colon cancer cells (HCT-116); assay: scratch assay, migration of HCT-116 cells; details: HCT-116, 10 μM, 48 hours; control group 47.78 ± 6.07
Experimental: as §2
This example was a scratch assay to evaluate the inhibitory effect of the polypeptide or derivative thereof (N1-N54) on the migration ability of human colon cancer cells (HCT-116). The experimental method was as described in Example 2.

[11] = system: human prostate cancer cells (22RV1); assay: scratch assay, migration of 22RV1 cells; details: 22RV1, 10 μM, 48 hours; control group 25.41 ± 5.01
Experimental: as §2
This example was a scratch assay to evaluate the inhibitory effect of the polypeptide or derivative thereof (N1-N54) on the migration ability of human prostate cancer cells (22RV1). The experimental method was as described in Example 2.

Substance | Number of cells (mean ± SD, P), migrated cells [1] | Migration rate (%) (mean ± SD, P) [2] | Number of cells (mean ± SD, P), migrated cells [3] | Migration rate (%) (mean ± SD, P) [4] | Migration rate (%) (mean ± SD, P) [5] | Migration rate (%) (mean ± SD, P) [6] | Migration rate (%) (mean ± SD, P) [7] | Migration rate (%) (mean ± SD, P) [8] | Migration rate (%) (mean ± SD, P) [9] | Migration rate (%) (mean ± SD, P) [10] | Migration rate (%) (mean ± SD, P) [11]
N13: SEQ ID NO: 1 with deletion of positions 15-18 and positions 1-5 (LAKENVTQD) | 25 ± 12,**** | 9.38 ± 2.46,*** % | 255 ± 24,* | 7.45 ± 2.6,*** % | 18.28 ± 8.38,*** % | 11.29 ± 8.97,*** % | 11.99 ± 2.39,*** % | 19.37 ± 9.40,** % | 21.2 ± 4.41,*** % | 12.19 ± 3.22,*** % | 9.77 ± 3.66,* %
N14: SEQ ID NO: 1 with deletion of positions 1-5 and addition of one amino acid at the carboxyl terminal (LAKENVTQDAEDNC) | 61 ± 14,**** | 12.90 ± 2.47,** % | 263 ± 16,* | 14.59 ± 5.36,* % | 26.63 ± 6.67,*** % | 19.97 ± 2.94,*** % | 14.09 ± 2.47,*** % | 15.27 ± 8.75,*** % | 32.55 ± 5.71,** % | 12.24 ± 2.32,*** % | 14.06 ± 2.37,* %
N15: SEQ ID NO: 1 with substitution N18R and addition of one amino acid to the carboxyl terminal (YRVRFLAKENVTQDAEDRC) | 131 ± 10,**** | 12.45 ± 4.28,** % | 220 ± 18,** | 13.03 ± 5.72,** % | 14.85 ± 5.08,*** % | 35.05 ± 3.95,** % | 8.84 ± 2.27,*** % | 14.98 ± 9.09,** % | 24.09 ± 6.40,** % | 10.41 ± 2.99,*** % | 8.36 ± 2.03,** %
N16: SEQ ID NO: 1 with substitution A7R and addition of one amino acid at the carboxyl terminus (YRVRFLRKENVTQDAEDNC) | 74 ± 18,**** | 5.51 ± 1.32,*** % | 230 ± 28,* | 14.99 ± 6.11,* % | 19.15 ± 4.97,*** % | 21.10 ± 8.01,*** % | 11.72 ± 4.41,*** % | 30.57 ± 5.41,** % | 17.00 ± 8.00,** % | 9.39 ± 2.06,*** % | 9.75 ± 2.14,** %
N17: SEQ ID NO: 1 with addition of two amino acids to the carboxyl terminal (YRVRFLAKENVTQDAEDNCT) | 50 ± 5,**** | 8.78 ± 2.34,*** % | 244 ± 14,* | 12.04 ± 4.13,** % | 15.47 ± 5.29,*** % | 43.38 ± 4.83,** % | 11.38 ± 2.27,*** % | 18.31 ± 9.26,** % | 18.31 ± 8.26,** % | 23.09 ± 2.41,*** % | 4.61 ± 1.64,** %
N18: SEQ ID NO: 1 with addition of one amino acid at the amino terminal and one at the carboxyl terminal (FYRVRFLAKENVTQDAEDNC) | 96 ± 28,**** | 6.29 ± 2.62,*** % | 232 ± 24,* | 18.64 ± 6.98,* % | 13.26 ± 7.39,*** % | 48.17 ± 3.85,** % | 22.96 ± 5.05% | 55.71 ± 4.05,* % | 25.71 ± 4.05,*** % | 16.96 ± 4.87,** % | 6.75 ± 3.22,** %
